These results are taken from patent publication US20260028410A1, “TREATMENT OF GRAFT VERSUS HOST DISEASES USING ANTI-CD122 ANTIBODY” (FORTE SUBSIDIARY, INC., priority 2023, published 2026).

Assay [1] has as its system human T and NK cell-mediated aGvHD (xenograft GvHD mouse model). The assay is described as follows: Acute GvHD xenograft mouse model, single vs combination therapy with Antibody 2 or Antibody 3 (Example 5), survival. Format: in vivo, NCG-hIL-15 mice transplanted with human PBMCs.
Description: (§1) A xenograft GvHD mouse model was utilized to study human T and NK cell-mediated aGvHD and the therapeutic effects of anti-CD122 antibody treatment in single or combination therapy approaches. Female NCG-hIL-15 mice were irradiated at a dosage of 100 cGy on Day 1 of the protocol and human peripheral blood mononuclear cells (PBMCs) were transplanted via injection at a dosage of 1×10^7 cells/200 μL/mice via IV administration into the irradiated mice according to the same xenograft GvHD mouse model design as in Example 1.
Treatment according to 3 different grouping of animals was begun on Day 5 following transplant, as shown in the study design of FIG. 5. Groups of a sufficient number of mice were used for each test category in order to evaluate a significant difference between test groups. A single treatment group, Group #1, received ruxolitinib (at a dosage of 60 mpk) twice-daily by oral administration beginning on Day 5 and ending on Day 18. Days of treatment are D5, D6, D7, D8, D9, D10, D11, D12, D13, D14, D15, D16, D17, and D18. A combination therapy group, Group #2, received ruxolitinib (at a dosage of 60 mpk) twice-daily by oral administration beginning on Day 5 and ending on Day 18. Days of treatment using ruxolitinib in Group #2 were D5, D6, D7, D8, D9, D10, D1I, D12, D13, D14, D15, D16, D17, and D18. Group #2 animals separately receive anti-CD122 antibody therapy (at a dosage of 75 mpk) once-daily by IP administration. Days of treatment using anti-CD122 antibody in Group #2 were D5, D6, D7, D8, D9, D10, D11, D12, D13, D14, D15, D16, D17, and D18. A vehicle group, Group #3, served as a negative control with vehicle-only administered following transplant received twice daily oral placebo (vehicle only) beginning on Day 5 and ending on Day 18. Days of oral placebo treatment were D5, D6, D7, D8, D9, D10, D11, D12, D13, D14, D15, D16, D17, and D18. […]
(§2) Day 18 was the end of study day for all treatment groups. Animals from all treatment groups were assessed daily beginning on Day 1 and ending on Day 18 for survival following transplant. […]
For assay [2] the test system is unchanged. The assay is described as follows: Acute GvHD xenograft mouse model, single vs combination therapy with Antibody 1 (Example 2), survival. Format: in vivo, NCG-hIL-15 mice transplanted with human PBMCs. The note with it: ruxolitinib 60 mpk twice-daily oral, Antibody 1 75 mpk once-daily IP, D5-D18. A general note: In xenograft studies the graft and the host belong to different species.
Description: as §1
Treatment according to 3 different grouping of animals was begun on Day 5 following transplant, as shown in the study design of FIG. 3. Groups of 10 mice were used for each test category. A single treatment group, Group #1, (n=10) received ruxolitinib (at a dosage of 60 mpk) twice-daily by oral administration beginning on Day 5 and ending on Day 18. Days of treatment were D5, D6, D7, D8, D9, D10, D11, D12, D13, D14, D15, D16, D17, and D18. A combination therapy group, Group #2, (n=10) received ruxolitinib (at a dosage of 60 mpk) twice-daily by oral administration beginning on Day 5 and ending on Day 18. Days of treatment using ruxolitinib in Group #2 were D5, D6, D7, D8, D9, D10, D11, D12, D13, D14, D15, D16, D17, and D18. Group #2 animals separately received treatment with Antibody 1 (anti-CD122 antibody as described herein) at a dosage of 75 mpk once-daily by IP administration. Days of treatment using Antibody 1 in Group #2 were D5, D6, D7, D8, D9, D10, D11, D12, D13, D14, D15, D16, D17, and D18. A vehicle group, Group #3, (n=10) served as a negative control with vehicle-only administered following transplant received twice daily oral placebo (vehicle only) beginning on Day 5 and ending on Day 18. Days of oral placebo treatment were D5, D6, D7, D8, D9, D10, D11, D12, D13, D14, D15, D16, D17, and D18. […]
as §2

Assay [3] shares this test system. Description: Acute GvHD xenograft mouse model, dose-ranging of Antibody 1 (Example 1), survival. It is filed as in vivo, NCG-hIL-15 mice transplanted with human PBMCs. Conditions: Day 14; 60 mcg each twice daily oral D5-D14; n=10. Here is the method: A xenograft GvHD mouse model was utilized to study human T and NK cell-mediated aGvHD and the therapeutic effects of anti-CD122 antibody treatment therein. Female NCG-hIL-15 mice were irradiated at a dosage of 100 cGy on Day 1 of the protocol and human peripheral blood mononuclear cells (PBMCs) were transplanted via injection at a dosage of 1×10^7 cells/200 μL/mice via IV administration into the irradiated mice. PBMCs are immune cells that originate in the bone marrow and are secreted into the peripheral circulation forming critical components of the immune system. PBMCs are involved in humoral and cell-mediated immune function. […] Groups of 10 mice were used for each test category. A vehicle group (n=10) served as a negative control with no treatment administered (only a combination of vehicle treatments) following transplant. A positive control group (n=10) of mice treated with 60 mcg each of ruxolitinib twice daily by oral administration was included in the study design. Ruxolitinib-treated animals were treated via oral administration of ruxolitinib twice daily on D5, D6, D7, D8, D9, D10, D11, D12, D13, and D14. Three groups of Antibody 1 treated animals (n=10 for each group) were tested using a) 75 milligram per kilogram of body weight (mpk) of antibody, b) 125 mpk of antibody, and c) 175 mpk of antibody, respectively. […]

Assay [4] deals with T1, Intermediate-affinity heterodimeric IL-βγ receptor (Homo sapiens, UniProt P14784+P31785).
T1 sequence (P14784 27-551): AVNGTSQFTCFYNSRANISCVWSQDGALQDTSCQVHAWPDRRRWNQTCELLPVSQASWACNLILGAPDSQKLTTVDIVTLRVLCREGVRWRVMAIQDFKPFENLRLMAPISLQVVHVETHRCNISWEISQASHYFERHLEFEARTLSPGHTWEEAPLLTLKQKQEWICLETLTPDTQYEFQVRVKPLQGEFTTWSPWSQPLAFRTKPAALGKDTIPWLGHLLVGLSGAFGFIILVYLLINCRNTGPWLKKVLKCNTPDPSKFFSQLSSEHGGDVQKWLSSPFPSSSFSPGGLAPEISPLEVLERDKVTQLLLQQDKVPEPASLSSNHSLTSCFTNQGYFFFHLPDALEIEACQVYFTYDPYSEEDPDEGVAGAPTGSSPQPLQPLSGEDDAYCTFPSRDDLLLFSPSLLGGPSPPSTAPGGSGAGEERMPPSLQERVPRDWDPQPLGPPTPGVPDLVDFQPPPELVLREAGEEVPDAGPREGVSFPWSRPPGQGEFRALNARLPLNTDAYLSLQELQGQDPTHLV
T1 sequence (P31785 23-369): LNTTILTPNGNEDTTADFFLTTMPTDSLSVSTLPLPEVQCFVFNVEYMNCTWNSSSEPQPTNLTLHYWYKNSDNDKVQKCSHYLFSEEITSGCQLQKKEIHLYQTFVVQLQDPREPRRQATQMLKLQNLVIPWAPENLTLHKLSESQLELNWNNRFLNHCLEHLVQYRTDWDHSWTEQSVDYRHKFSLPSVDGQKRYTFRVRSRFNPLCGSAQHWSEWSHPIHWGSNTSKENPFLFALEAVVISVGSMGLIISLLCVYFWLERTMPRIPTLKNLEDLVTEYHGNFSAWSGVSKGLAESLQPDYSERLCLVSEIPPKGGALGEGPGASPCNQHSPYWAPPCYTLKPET
Conditions: ligand affinity for IL-βγ receptor (CD122/CD132); cited from earlier work.

Assay [5] addresses high-affinity heterotrimer IL-αβγ receptor. The note with it: ligand affinity for IL-αβγ receptor combinations; cited from earlier work.

For `N#CC[C@H](C1CCCC1)n1cc(-c2ncnc3[nH]ccc23)cn1` [ruxolitinib], in assay [1] (Day 18, ruxolitinib 60 mpk twice-daily oral, anti-CD122 antibody 75 mpk once-daily IP, D5-D18, n=10), the “survival on Day 18” value was determined as 0%. For the same compound, the “Median survival” value in assay [1] (aGvHD xenograft mice, treatment Day 5 to Day 18 (ruxolitinib 60 mpk twice-daily oral; anti-CD122 antibody 75 mpk once-daily IP), followed to Day 18) was determined as 14 days; in assay [2] (up to Day 18), 17.5 days. The “Average survival time” value in assay [1] (aGvHD xenograft mice, treatment Day 5 to Day 18 (ruxolitinib 60 mpk twice-daily oral; anti-CD122 antibody 75 mpk once-daily IP), followed to Day 18, Mean ± SD) worked out at 13.20 ± 0.93 days; in assay [2] (up to Day 18, Mean ± SD), 16.3 ± 3.4 days. In addition, the “survival rate at the end of the study” value in assay [2] (Day 18, n=10) is 30%. Moreover, the “survival at study conclusion” value in assay [3] is 60%.
As usually defined, the Kd is the free concentration of one partner at which half of the binding sites on the other are occupied at equilibrium, for simple one-to-one binding. Turning to IL15: cytokine interleukin 15, the Kd was around 1000 pM in assay [4] and around 10 pM in assay [5].
